Data reported in article PMC7721686, “Isolation, Characterization and Structure Elucidation of a Novel Lantibiotic From Paenibacillus sp” (Frontiers in Microbiology, 2020).
Values after ≈ are worked out from the molar mass of the structure shown. Read-outs that look alike come from different tables or passages of the source. Positions of bridges follow the written chain, without caps; N, C: chain ends. Non-standard residues stand in square brackets, D forms with d. Residues, ends and D or L forms follow the SMILES beside them. *: point of attachment. X1 = CC[C@H](C)CCCCC(=O)*; Dab = NCC[C@H](N)C(=O)O

How the values were obtained:
[1] = tested on: Acinetobacter baumannii CH52; test: microbe, parasite or virus in culture
[2] = tested on: Acinetobacter baumannii CH54; test: microbe, parasite or virus in culture
[3] = tested on: Acinetobacter septicus CH44; test: microbe, parasite or virus in culture
[4] = tested on: Acinetobacter baumannii CH39; test: microbe, parasite or virus in culture
[5] = tested on: Acinetobacter baumannii CH48; test: microbe, parasite or virus in culture
[6] = tested on: Multi-drug resistant A. baumannii CH-46; test: microbe, parasite or virus in culture; conditions: Acinetobacter baumannii
[7] = tested on: Acinetobacter baumannii CH51; test: microbe, parasite or virus in culture
[8] = tested on: Acinetobacter guillouiae CH42; test: microbe, parasite or virus in culture
[9] = tested on: Acinetobacter baumannii CH49; test: microbe, parasite or virus in culture
[10] = tested on: Acinetobacter baumannii CH55; test: microbe, parasite or virus in culture
[11] = tested on: Acinetobacter baumannii CH38; test: microbe, parasite or virus in culture
[12] = tested on: Acinetobacter baumannii CH45; test: microbe, parasite or virus in culture
[13] = tested on: Acinetobacter baumannii CH47; test: microbe, parasite or virus in culture
[14] = tested on: Acinetobacter calcoaceticus CH37; test: microbe, parasite or virus in culture
[15] = tested on: Acinetobacter baumannii CH36; test: microbe, parasite or virus in culture
[16] = tested on: Acinetobacter baumannii CH50; test: microbe, parasite or virus in culture
[17] = tested on: Acinetobacter modestus CH43; test: microbe, parasite or virus in culture
[18] = tested on: Acinetobacter ursingii CH41; test: microbe, parasite or virus in culture
[19] = tested on: Acinetobacter baumannii CH53; test: microbe, parasite or virus in culture
[20] = tested on: Acinetobacter baumannii CH40; test: microbe, parasite or virus in culture
[21] = tested on: Acinetobacter calcoaceticus CH37
[22] = tested on: Acinetobacter baumannii CH50
[23] = tested on: Acinetobacter modestus CH43
[24] = tested on: Acinetobacter baumannii CH54
[25] = tested on: Acinetobacter baumannii CH53
[26] = tested on: Acinetobacter baumannii CH40
[27] = tested on: Acinetobacter baumannii CH48
[28] = tested on: Acinetobacter baumannii CH47
[29] = tested on: Acinetobacter baumannii CH36
[30] = tested on: Acinetobacter septicus CH44; conditions: CH44, A. septicus, drug resistance N
[31] = tested on: Acinetobacter baumannii CH38
[32] = tested on: Acinetobacter ursingii CH41; conditions: CH41, A. ursingii, drug resistance N
[33] = tested on: Acinetobacter baumannii CH55
[34] = tested on: Acinetobacter baumannii CH51
[35] = tested on: Acinetobacter baumannii CH49
[36] = tested on: Acinetobacter guillouiae CH42
[37] = tested on: Multi-drug resistant A. baumannii CH-46; conditions: Multi-drug resistant A. baumannii CH-46 (CH46 in Table S1, drug resistance Y); broth microplate dilution
[38] = tested on: Acinetobacter baumannii CH39
[39] = tested on: Acinetobacter baumannii CH45
[40] = tested on: Acinetobacter baumannii CH52
S. aureus (ATCC 29213) = type: cell-based, Staphylococcus aureus; conditions: overnight 37°C
MDR S. aureus (CH-11) = type: cell-based, Staphylococcus aureus
[41] = tested on: S. aureus ATCC 29213 (SA) biofilm; test: Anti-biofilm activity, pre-formed biofilm; type: cell-based, Staphylococcus aureus; conditions: only at the highest concentration 100 μg/mL, 4 h, PrestoBlue
S. aureus ATCC 29213 = test: Inhibition of bacterial adhesion, pre-coated polystyrene plates; type: cell-based, Staphylococcus aureus; conditions: wells pre-treated at 10 μg/mL, washed; bacteria incubated 1 to 24 h at 37°C, PrestoBlue

## C[C@@H](O)[C@H]1C(=O)N2C(C(=O)O)=C(SCCN=CN)C[C@H]12 [Imipenem]
[1]
  MIC: 31.2 µg/mL (≈ 104 µM)
[2]
  MIC: 7.81 µg/mL (≈ 26.1 µM)
[3]
  MIC: 1.46 µg/mL (≈ 4.88 µM)
[4]
  MIC: 15.6 µg/mL (≈ 52.2 µM)
[5]
  MIC: 7.81 µg/mL (≈ 26.1 µM)
[6]
  MIC: 250 µg/mL (≈ 835 µM)
[7]
  MIC: 31.2 µg/mL (≈ 104 µM)
[8]
  MIC: 7.81 µg/mL (≈ 26.1 µM)
[9]
  MIC: 62.5 µg/mL (≈ 209 µM)
[10]
  MIC: 46.9 µg/mL (≈ 157 µM)
[11]
  MIC: 125 µg/mL (≈ 418 µM)
[12]
  MIC: 125 µg/mL (≈ 418 µM)
[13]
  MIC: 3.91 µg/mL (≈ 13.1 µM)
[14]
  MIC: 0.5 µg/mL (≈ 1.67 µM)
[15]
  MIC: 250 µg/mL (≈ 835 µM)
[16]
  MIC: 62.5 µg/mL (≈ 209 µM)
[17]
  MIC: 0.5 µg/mL (≈ 1.67 µM)
[18]
  MIC: 1 µg/mL (≈ 3.34 µM)
[19]
  MIC: 31.2 µg/mL (≈ 104 µM)
[20]
  MIC: 31.2 µg/mL (≈ 104 µM)

## CC[C@H](C)CCCCC(=O)N[C@@H](CCN)C(=O)N[C@H](C(=O)N[C@@H](CCN)C(=O)N[C@H]1CCNC(=O)[C@H]([C@@H](C)O)NC(=O)[C@H](CCN)NC(=O)[C@H](CCN)NC(=O)[C@H](CC(C)C)NC(=O)[C@@H](CC(C)C)NC(=O)[C@H](CCN)NC1=O)[C@@H](C)O [Colistin] (X1-[Dab]T[Dab][Dab][Dab][dL]L[Dab][Dab]T; lactam 4-C (inferred); N-terminus assumed)
[21]
  MIC: 3.91 µg/mL (≈ 3.34 µM)
[22]
  MIC: 5.86 µg/mL (≈ 5.01 µM)
[23]
  MIC: 7.81 µg/mL (≈ 6.68 µM)
[24]
  MIC: 5.86 µg/mL (≈ 5.01 µM)
[25]
  MIC: 3.91 µg/mL (≈ 3.34 µM)
[26]
  MIC: 5.86 µg/mL (≈ 5.01 µM)
[27]
  MIC: 3.91 µg/mL (≈ 3.34 µM)
[28]
  MIC: 3.91 µg/mL (≈ 3.34 µM)
[29]
  MIC: 3.91 µg/mL (≈ 3.34 µM)
[30]
  MIC: 1.95 µg/mL (≈ 1.67 µM)
[31]
  MIC: 3.91 µg/mL (≈ 3.34 µM)
[32]
  MIC: 1.95 µg/mL (≈ 1.67 µM)
[33]
  MIC: 7.81 µg/mL (≈ 6.68 µM)
[34]
  MIC: 3.91 µg/mL (≈ 3.34 µM)
[35]
  MIC: 3.91 µg/mL (≈ 3.34 µM)
[36]
  MIC: 3.91 µg/mL (≈ 3.34 µM)
[37]
  MIC: 3.91 µg/mL (≈ 3.34 µM)
[38]
  MIC: 3.91 µg/mL (≈ 3.34 µM)
[39]
  MIC: 3.91 µg/mL (≈ 3.34 µM)
[40]
  MIC: 3.91 µg/mL (≈ 3.34 µM)

## COc1cccc(OC)c1C(=O)N[C@@H]1C(=O)N2[C@@H]1SC(C)(C)[C@@H]2C(=O)O [Methicillin]
S. aureus (ATCC 29213); 2X MIC in Mueller-Hinton agar, resistant colonies / CFU of inoculum
  Frequency of Resistance to antibiotics: < 3.72 × 10^–10
S. aureus (ATCC 29213); 3X MIC in Mueller-Hinton agar
  Frequency of Resistance to antibiotics: < 3.72 × 10^–10
S. aureus (ATCC 29213); 4X MIC in Mueller-Hinton agar
  Frequency of Resistance to antibiotics: < 3.72 × 10^–10
S. aureus (ATCC 29213); 5X MIC in Mueller-Hinton agar
  Frequency of Resistance to antibiotics: < 3.72 × 10^–10
S. aureus (ATCC 29213); 10X MIC in Mueller-Hinton agar
  Frequency of Resistance to antibiotics: < 3.72 × 10^–10
MDR S. aureus (CH-11)
  Frequency of Resistance to antibiotics: resistant

## CN[C@H](CC(C)C)C(=O)N[C@H]1C(=O)N[C@@H](CC(N)=O)C(=O)N[C@H]2C(=O)N[C@H]3C(=O)N[C@H](C(=O)N[C@H](C(=O)O)c4cc(O)cc(O)c4-c4cc3ccc4O)[C@H](O)c3ccc(c(Cl)c3)Oc3cc2cc(c3O[C@@H]2O[C@H](CO)[C@@H](O)[C@H](O)[C@H]2O[C@H]2C[C@](C)(N)[C@H](O)[C@H](C)O2)Oc2ccc(cc2Cl)[C@H]1O [vancomycin]
[41]
  Effect on viability of pre-formed biofilm: partially effective

B1: platelet factor 4: control cationic peptide (protein, UniProt P02776 32-101, looked up)
Platelet factor 4: EAEEDGDLQCLCVKTTSQVRPRHITSLEVIKAGPHCPTAQLIATLKNGRKICLDLQAPLYKKIIKKLLES
S. aureus ATCC 29213
  Inhibition of cell adhesion / biofilm formation on pre-treated polystyrene wells: no effect on biofilm formation
